ChEMBL document CHEMBL3627683, “Effective Two-Photon Excited Photodynamic Therapy of Xenograft Tumors Sensitized by Water-Soluble Bis(arylidene)cycloalkanone Photosensitizers” (J Med Chem, 2015)
≈ marks a conversion by molar mass, not a printed value. Calls of active or inactive are those of the source. The rule behind the calls is not given here.

Tests used:
[1] = Drug uptake in mitochondria of human HepG2 cells by MitoLite NIR staining-based CLSM analysis; type: ADME; conditions: TDE = time-dependent effect
[2] = Therapeutic ratio of TC50 for human HepG2 cells to IC50 for human HepG2 cells under irradiation at […]; type: ADME, cell-based; conditions: read-out: TI
[3] = Therapeutic ratio of TC50 for human HepG2 cells to IC50 for human HepG2 cells under irradiation at 800 nm; type: ADME, cell-based; conditions: read-out: TI
[4] = Drug uptake in mitochondria of human HepG2 cells at 5 uM for 4 hrs by MitoLite NIR staining-based CLSM analysis; type: ADME; conditions: hepg2, 4 h
[5] = Dark toxicity in human HepG2 cells assessed as cell viability measured after 24 hrs by CCK-8 assay; type: cell-based; conditions: read-out: TC50
HepG2 [6] = assay: Photocytotoxicity against human HepG2 cells assessed as cell viability preincubated for 4 hrs in dark condition followed by irradiation at 800 nm for 10 mins measured 24 hrs post incubation in dark condition by CCK-8 assay; type: functional, cell-based; conditions: HepG2, light or radiation study
[7] = Solubility of the compound in PBS; type: physicochemical
[8] = Octanol-water partition coefficient, log P of the compound; type: physicochemical
HepG2 [9] = assay: Photocytotoxicity against human HepG2 cells assessed as cell viability preincubated for 4 hrs in dark condition followed by irradiation at 532 nm for 20 mins measured 24 hrs post incubation in dark condition by CCK-8 assay; type: functional, cell-based; conditions: HepG2, light or radiation study
HepG2 [10] = assay: Induction of ROS generation in human HepG2 cells at 5 uM preincubated for 4 hrs followed by DCFH-DA addition for 0.5 hrs in absence of irradiation measured by CSLM; type: functional, cell-based
CCRF S-180 [11] = assay: Antitumor activity against mouse S180 cells implanted in BALB/c mouse assessed as tumor growth inhibition at 17.5 mg/kg, iv administered 3 hrs followed by irradiation at 800 nm for 25 mins measured every other day until 12 days […]; type: functional, organism-based
Mus musculus = assay: Induction of blood vessels blockage in BALB/c mouse dorsal skinfold window chamber model at 17.5 mg/kg, iv irradiated at 800 nm for 5 mins monitored by stereomicroscopic analysis; type: functional, organism-based; conditions: Blood vessel
CCRF S-180 [12] = assay: Antitumor activity against mouse S180 cells implanted in BALB/c mouse assessed as tumor growth inhibition at 17.5 mg/kg, iv administered 3 hrs followed by irradiation at 800 nm for 25 mins measured every other day until 12 days relative to control; type: functional; conditions: CCRF S-180, light or radiation study, read-out: TGI
CCRF S-180 [13] = assay: Antitumor activity against mouse S180 cells implanted in BALB/c mouse assessed as prolongation of survival at 17.5 mg/kg, iv administered 3 hrs followed by irradiation at 800 nm for 25 mins measured by Kaplan-Meier analysis; type: functional, organism-based
CCRF S-180 [14] = assay: Drug uptake in mouse S180 cells implanted in BALB/c mouse at 17.5 mg/kg, iv measured at 3 to 24 hrs by CSLM analysis; type: ADME, organism-based; conditions: in vivo
CCRF S-180 [15] = assay: Antitumor activity against mouse S180 cells implanted in BALB/c mouse assessed as prolongation of survival at 17.5 mg/kg, iv administered 3 hrs in the absence of irradiation measured by Kaplan-Meier analysis; type: functional, organism-based
CCRF S-180 [16] = assay: Drug uptake in mouse S180 cells implanted in BALB/c mouse at 17.5 mg/kg, iv measured within 3 hrs by CSLM analysis; type: ADME, organism-based; conditions: in vivo
HepG2 [17] = assay: Induction of ROS generation in human HepG2 cells at 5 uM preincubated for 4 hrs followed by DCFH-DA addition for 0.5 hrs and irradiation at 800 nm for 10 mins measured by CLSM; type: functional, cell-based

| Drug uptake [1] | Drug uptake [4] | solubility [7] [mg/mL] | logP [8] | Drug uptake (CCRF S-180 [14]) | Drug uptake (CCRF S-180 [16]) | SMILES | selectivity ratio [2] | selectivity ratio [3] | CC50 at 24 h [5] [µM] | IC50 (HepG2 [6]) [µM] | IC50 (HepG2 [9]) [µM] | Activity (HepG2 [10]) | TGI (CCRF S-180 [11]) | Activity (Mus musculus) | inhibition in vivo at 17.5 mg/kg (CCRF S-180 [12]) [%] | Activity (CCRF S-180 [13]) | Activity (CCRF S-180 [15]) | Activity (HepG2 [17]) |
| --- | --- | --- | --- | --- | --- | --- | --- | --- | --- | --- | --- | --- | --- | --- | --- | --- | --- | --- |
| tde | Active | > 100 | 2.54 |  |  | COCCOCCOCCOCCOCCN(C)c1ccc(C=C2CC(=Cc3ccc(N(C)CCOCCOCCOCCOCCOC)cc3)C2=O)cc1 | 13.6 | 2.49 | 41.9 | 16.8 | 3.07 |  |  |  |  |  |  |  |
| tde | Active | > 100 | 2.73 |  |  | COCCOCCOCCOCCOCCN(C)c1ccc(/C=C2\CC/C(=C\c3ccc(N(C)CCOCCOCCOCCOCCOC)cc3)C2=O)cc1 | 16 | 2.79 | 41.5 | 14.9 | 2.59 |  |  |  |  |  |  |  |

Continued, compound first:

| SMILES | Drug uptake [1] | Drug uptake [4] | solubility [7] [mg/mL] | logP [8] | Drug uptake (CCRF S-180 [14]) | Drug uptake (CCRF S-180 [16]) | selectivity ratio [2] | selectivity ratio [3] | CC50 at 24 h [5] [µM] | IC50 (HepG2 [6]) [µM] | IC50 (HepG2 [9]) [µM] | Activity (HepG2 [10]) | TGI (CCRF S-180 [11]) | Activity (Mus musculus) | inhibition in vivo at 17.5 mg/kg (CCRF S-180 [12]) [%] | Activity (CCRF S-180 [13]) | Activity (CCRF S-180 [15]) | Activity (HepG2 [17]) |
| --- | --- | --- | --- | --- | --- | --- | --- | --- | --- | --- | --- | --- | --- | --- | --- | --- | --- | --- |
| CCN(CC)c1ccc(C=C2CC(=Cc3ccc(N(CCOCCOCCOCCOCCOC)CCOCCOCCOCCOCCOC)cc3)C2=O)cc1 | tde | Active | > 100 | 3.04 | Not Active | Active | 25.5 | 9.13 | 35.9 | 3.93 | 1.41 | inactive | inactive | Active | 43 | Active | inactive | Active |
| CCN(CC)c1ccc(/C=C2\CC/C(=C\c3ccc(N(CCOCCOCCOCCOCCOC)CCOCCOCCOCCOCCOC)cc3)C2=O)cc1 | tde | Active | > 100 | 3.2 |  |  | 13 | 4.48 | 20.9 | 4.66 | 1.61 |  |  |  |  |  |  |  |
| COCCOCCOCCOCCN(C)c1ccc(C=C2CC(=Cc3ccc(N(C)CCOCCOCCOCCOC)cc3)C2=O)cc1 | tde | Active | 0.3 (≈ 0.438 mM) | 2.86 |  |  | 15 | 2.58 | 34 | 13.2 | 2.26 |  |  |  |  |  |  |  |
| CCN(CC)c1ccc(C=C2CC(=Cc3ccc(N(CCOCCOCCOCCOC)CCOCCOCCOCCOC)cc3)C2=O)cc1 | tde | Active | 1.8 (≈ 2.52 mM) | 3.2 |  |  | 18.9 | 12.8 | 24 | 1.87 | 1.27 |  |  |  |  |  |  |  |
